Measured values taken from ChEMBL document CHEMBL1126460, “The use of synthetic phosphopeptides for epitope mapping of the s1-casein phosphopeptide segment 5979” (Bioorg Med Chem Lett, 1992).

experiment: Peptide was evaluated for inhibition in competitive ELISA at a concentration of 1 mM using casein phosphopeptide alpha s1-casein (59-79) as the adsorbed antigen

| Molecule | inhibition [%] |
| --- | --- |
| CC[C@H](C)[C@H](NC(=O)[C@H](COP(=O)(Oc1ccccc1)Oc1ccccc1)NC(=O)[C@H](CCC(=O)O)NC(=O)[C@H](C)NC(=O)[C@@H](N)CCC(=O)O)C(=O)NC | 10.9 |
| CC[C@H](C)[C@H](N)C(=O)N[C@H](C(=O)N1CCC[C@@H]1C(=O)N[C@@H](CC(N)=O)C(=O)N[C@@H](COP(=O)(Oc1ccccc1)Oc1ccccc1)C(=O)N[C@H](C(=O)N[C@@H](CCC(=O)O)C(=O)N[C@@H](CCC(=O)O)C(=O)NC)C(C)C)C(C)C | 60.3 |
| H-QMEAE-OH | 10 |
| CC[C@H](C)[C@H](N)C(=O)N[C@H](C(=O)N1CCC[C@@H]1C(=O)N[C@@H](CC(N)=O)C(=O)N[C@@H](CO)C(=O)N[C@H](C(=O)N[C@@H](CCC(=O)O)C(=O)N[C@@H](CCC(=O)O)C(=O)NC)C(C)C)C(C)C | 12 |

Next, values leading:

| inhibition [%] | Molecule |
| --- | --- |
| 10.8 | CC[C@H](C)[C@H](NC(=O)[C@H](CCC(=O)O)NC(=O)[C@@H](N)CCC(=O)O)C(=O)N[C@H](C(=O)N1CCC[C@@H]1C(=O)N[C@@H](CC(N)=O)C(=O)O)C(C)C |
| 20 | CC[C@H](C)[C@H](NC(=O)[C@H](COP(=O)(Oc1ccccc1)Oc1ccccc1)NC(=O)[C@H](CCC(=O)O)NC(C)=O)C(=O)N[C@@H](COP(=O)(Oc1ccccc1)Oc1ccccc1)C(=O)N[C@@H](COP(=O)(Oc1ccccc1)Oc1ccccc1)C(=O)N[C@@H](COP(=O)(Oc1ccccc1)Oc1ccccc1)C(=O)N[C@@H](CCC(=O)O)C(=O)NC(CCC(=O)O)C(=O)NC (stereo partly specified) |
